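Method: 48-hour compound exposure of cells in 96-well plates, five concentrations, linear interpolation of endpoints. At the TGI there is no net growth.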
What was measured:
Assay in all cases: growth of human tumour cells (NCI), 48 h
786-0 renal = system: 786-0 renal
A498 renal = system: A498 renal
A549 NSCLC = system: A549 NSCLC
ACHN renal = system: ACHN renal
BT-549 breast = system: BT-549 breast
CAKI-1 renal = system: CAKI-1 renal
CCRF-CEM leukemia = system: CCRF-CEM leukemia
COLO 205 colon = system: COLO 205 colon
DU-145 prostate = system: DU-145 prostate
EKVX NSCLC = system: EKVX NSCLC
HCC-2998 colon = system: HCC-2998 colon
HCT-116 colon = system: HCT-116 colon
HCT-15 colon = system: HCT-15 colon
HL-60(TB) leukemia = system: HL-60(TB) leukemia
HOP-62 NSCLC = system: HOP-62 NSCLC
HOP-92 NSCLC = system: HOP-92 NSCLC
HS 578T breast = system: HS 578T breast
HT29 colon = system: HT29 colon
IGROV1 ovarian = system: IGROV1 ovarian
K-562 leukemia = system: K-562 leukemia
KM12 colon = system: KM12 colon
M14 melanoma = system: M14 melanoma
MALME-3M melanoma = system: MALME-3M melanoma
MCF7 breast = system: MCF7 breast
MDA-MB-231 breast = system: MDA-MB-231 breast
MDA-MB-435 = system: MDA-MB-435
MDA-N = system: MDA-N
MOLT-4 leukemia = system: MOLT-4 leukemia
NCI-H226 lung = system: NCI-H226 lung
NCI-H23 lung = system: NCI-H23 lung
NCI-H460 lung = system: NCI-H460 lung
NCI-H522 lung = system: NCI-H522 lung
NCI/ADR-RES ovarian = system: NCI/ADR-RES ovarian
OVCAR-3 ovarian = system: OVCAR-3 ovarian
OVCAR-4 ovarian = system: OVCAR-4 ovarian
OVCAR-5 ovarian = system: OVCAR-5 ovarian
PC-3 prostate = system: PC-3 prostate
RPMI-8226 leukemia = system: RPMI-8226 leukemia
RXF 393 renal = system: RXF 393 renal
SF-268 CNS = system: SF-268 CNS
SF-295 CNS = system: SF-295 CNS
SF-539 CNS = system: SF-539 CNS
SK-MEL-2 melanoma = system: SK-MEL-2 melanoma
SK-MEL-28 melanoma = system: SK-MEL-28 melanoma
SK-MEL-5 melanoma = system: SK-MEL-5 melanoma
SK-OV-3 ovarian = system: SK-OV-3 ovarian
SN12C renal = system: SN12C renal
SNB-19 CNS = system: SNB-19 CNS
SR leukemia = system: SR leukemia
T-47D breast = system: T-47D breast
TK-10 renal = system: TK-10 renal
U251 CNS = system: U251 CNS
UACC-257 melanoma = system: UACC-257 melanoma
UACC-62 melanoma = system: UACC-62 melanoma
UO-31 renal = system: UO-31 renal
LOX IMVI melanoma = system: LOX IMVI melanoma
SW-620 colon = system: SW-620 colon

CCCCN1C(=O)CS/C1=N/Nc1nc2c([nH]1)c(=O)n(C)c(=O)n2C
TGI (786-0 renal): 41.7 µM
TGI (A498 renal): > 100 µM
TGI (A549 NSCLC): > 100 µM
TGI (ACHN renal): > 100 µM
TGI (BT-549 breast): > 100 µM
TGI (CAKI-1 renal): > 100 µM
TGI (CCRF-CEM leukemia): 54.8 µM
TGI (COLO 205 colon): > 100 µM
TGI (DU-145 prostate): > 100 µM
TGI (EKVX NSCLC): > 100 µM
TGI (HCC-2998 colon): > 100 µM
TGI (HCT-116 colon): 29.3 µM
TGI (HCT-15 colon): > 100 µM
TGI (HL-60(TB) leukemia): > 100 µM
TGI (HOP-62 NSCLC): > 100 µM
TGI (HOP-92 NSCLC): > 100 µM
TGI (HS 578T breast): > 100 µM
TGI (HT29 colon): > 100 µM
TGI (IGROV1 ovarian): > 100 µM
TGI (K-562 leukemia): > 100 µM
TGI (KM12 colon): > 100 µM
TGI (M14 melanoma): > 100 µM
TGI (MALME-3M melanoma): > 100 µM
TGI (MCF7 breast): 31.3 µM
TGI (MDA-MB-231 breast): > 100 µM
TGI (MDA-MB-435): 40.7 µM
TGI (MDA-N): 36.6 µM
TGI (MOLT-4 leukemia): 64.7 µM
TGI (NCI-H226 lung): > 100 µM
TGI (NCI-H23 lung): > 100 µM
TGI (NCI-H460 lung): > 100 µM
TGI (NCI-H522 lung): > 100 µM
TGI (NCI/ADR-RES ovarian): > 100 µM
TGI (OVCAR-3 ovarian): > 100 µM
TGI (OVCAR-4 ovarian): 71.4 µM
TGI (OVCAR-5 ovarian): 59.4 µM
TGI (PC-3 prostate): > 100 µM
TGI (RPMI-8226 leukemia): > 100 µM
TGI (RXF 393 renal): > 100 µM
TGI (SF-268 CNS): > 100 µM
TGI (SF-295 CNS): 53.1 µM
TGI (SF-539 CNS): > 100 µM
TGI (SK-MEL-2 melanoma): > 100 µM
TGI (SK-MEL-28 melanoma): > 100 µM
TGI (SK-MEL-5 melanoma): > 100 µM
TGI (SK-OV-3 ovarian): > 100 µM
TGI (SN12C renal): > 100 µM
TGI (SNB-19 CNS): > 100 µM
TGI (SR leukemia): 38.1 µM
TGI (T-47D breast): > 100 µM
TGI (TK-10 renal): > 100 µM
TGI (U251 CNS): > 100 µM
TGI (UACC-257 melanoma): > 100 µM
TGI (UACC-62 melanoma): > 100 µM
TGI (UO-31 renal): > 100 µM

C/C(=C1\C(=O)C(c2ccccc2)N(c2ccccc2)C1=O)c1ccc(Cl)cc1 (stereo not given)
TGI (786-0 renal): 38.6 µM
TGI (A498 renal): 33.1 µM
TGI (A549 NSCLC): 36.5 µM
TGI (ACHN renal): 45 µM
TGI (BT-549 breast): 49.2 µM
TGI (CAKI-1 renal): 48.4 µM
TGI (COLO 205 colon): 32.8 µM
TGI (DU-145 prostate): 34 µM
TGI (EKVX NSCLC): 79.6 µM
TGI (HCC-2998 colon): 96.1 µM
TGI (HCT-116 colon): 36.3 µM
TGI (HCT-15 colon): 43.6 µM
TGI (HL-60(TB) leukemia): 69.1 µM
TGI (HOP-62 NSCLC): 84.5 µM
TGI (HOP-92 NSCLC): 13.6 µM
TGI (HS 578T breast): 40.9 µM
TGI (HT29 colon): 31.2 µM
TGI (IGROV1 ovarian): 40.5 µM
TGI (K-562 leukemia): > 100 µM
TGI (KM12 colon): 57.1 µM
TGI (LOX IMVI melanoma): 28.5 µM
TGI (M14 melanoma): 42.3 µM
TGI (MALME-3M melanoma): 37.4 µM
TGI (MCF7 breast): > 100 µM
TGI (MDA-MB-231 breast): 57.6 µM
TGI (MDA-MB-435): 32.8 µM
TGI (MDA-N): 48 µM
TGI (MOLT-4 leukemia): > 100 µM
TGI (NCI-H226 lung): 43 µM
TGI (NCI-H23 lung): 31.9 µM
TGI (NCI-H460 lung): > 100 µM
TGI (NCI-H522 lung): 38.7 µM
TGI (NCI/ADR-RES ovarian): > 100 µM
TGI (OVCAR-3 ovarian): 30.6 µM
TGI (OVCAR-4 ovarian): 42.8 µM
TGI (PC-3 prostate): 28.2 µM
TGI (RPMI-8226 leukemia): 38.1 µM
TGI (RXF 393 renal): 79.2 µM
TGI (SF-268 CNS): 47 µM
TGI (SF-295 CNS): 74.9 µM
TGI (SF-539 CNS): 48.9 µM
TGI (SK-MEL-2 melanoma): 45.4 µM
TGI (SK-MEL-28 melanoma): 31.2 µM
TGI (SK-MEL-5 melanoma): 28.3 µM
TGI (SK-OV-3 ovarian): 30.8 µM
TGI (SN12C renal): 86 µM
TGI (SNB-19 CNS): 32.7 µM
TGI (SR leukemia): 53.2 µM
TGI (SW-620 colon): 72.3 µM
TGI (T-47D breast): 45.3 µM
TGI (TK-10 renal): 52.5 µM
TGI (U251 CNS): 29.4 µM
TGI (UACC-257 melanoma): 30.8 µM
TGI (UACC-62 melanoma): 30.8 µM
TGI (UO-31 renal): 45.8 µM

From PubChem BioAssay (NCI)
